Reference: the supplement of paper PMC10883282
Where a name gives a salt, the structure may show the parent alone. ± gives the standard deviation of the averaged measurements.

System: HS729
Assay: relative viability vs DMSO control (72 h) (fraction); higher = more viable cells
Outline: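 Densities for seeding sarcoma cell lines into 384-well plates were set to give 80–90% confluence. After 24 h, 2.5 µl of serially diluted compound from source plates of 10 mM to 0.0002 mM went in, and plates stayed 72 h at 37 °C in 5% CO2 with 0.1% DMSO vehicle and a 5 µM positive control. Percent growth from ATPLite readings, averaged over up to triplicate wells, served as relative viability, rescaled so 1 means full and 0 means none.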

Structure (SMILES) | relative viability (2 pM) | relative viability (5 pM) | relative viability (15 pM) | relative viability (50 pM) | relative viability (0.00014 µM) | relative viability (0.00041 µM) | relative viability (0.0012 µM) | relative viability (0.0037 µM) | relative viability (0.011 µM) | relative viability (200 fM) | relative viability (600 fM) | relative viability (0.00017 µM) | relative viability (0.00051 µM) | relative viability (0.00152 µM) | relative viability (0.00457 µM) | relative viability (0.01372 µM) | relative viability (0.04115 µM) | relative viability (0.1235 µM) | relative viability (0.3704 µM) | relative viability (1.111 µM) | relative viability (3.333 µM) | relative viability (10 µM)
COc1cc2c(cc1O)CCN[C@]21CS[C@@H]2c3c(OC(C)=O)c(C)c4c(c3[C@H](COC1=O)N1[C@@H]2[C@H]2c3c(cc(C)c(OC)c3O)C[C@@H]([C@@H]1O)N2C)OCO4 [Trabectedin] | 0.999 ± 0.056 | 0.952 ± 0.019 | 0.957 ± 0.067 | 0.859 ± 0.044 | 0.557 ± 0.15 | 0.137 ± 0.14 | 0.183 ± 0.041 | 0.166 ± 0.0097 | 0.124 ± 0.0083 | 1.02 ± 0.048 | 1.05 ± 0.034 |  |  |  |  |  |  |  |  |  |  | 
CN1CCN(c2ccc3nc(-c4c(N)c5c(F)cccc5[nH]c4=O)[nH]c3c2)CC1 [Dovitinib] |  |  |  |  |  |  |  |  |  |  |  | 1.09 ± 0.058 | 1.03 ± 0.036 | 1.09 ± 0.027 | 1.04 ± 0.061 | 1.05 ± 0.079 | 1 ± 0.026 | 0.968 ± 0.083 | 0.832 ± 0.059 | 0.62 ± 0.025 | 0.41 ± 0.066 | 0.264 ± 0.034
C[C@@H]1COCCN1c1cc(-c2ccnn2C)c2ccnc(-c3ccn[nH]3)c2n1 |  |  |  |  |  |  |  |  |  |  |  | 0.945 ± 0.068 | 0.894 ± 0.045 | 0.92 ± 0.071 | 0.873 ± 0.041 | 0.849 ± 0.036 | 0.804 ± 0.04 | 0.681 ± 0.019 | 0.634 ± 0.018 | 0.469 ± 0.017 | 0.403 ± 0.033 | 0.373 ± 0.012
Cn1cc(-c2cc3c(N4CCN(c5ncc([C@@](C)(N)c6ccc(F)cc6)cn5)CC4)ncnn3c2)cn1 [Avapritinib] |  |  |  |  |  |  |  |  |  |  |  | 0.909 ± 0.046 | 0.949 ± 0.023 | 0.9313 ± 0.0083 | 0.916 ± 0.037 | 0.909 ± 0.025 | 0.899 ± 0.077 | 0.864 ± 0.093 | 0.822 ± 0.084 | 0.814 ± 0.11 | 0.819 ± 0.086 | 0.802 ± 0.13
C[C@]1(O)C[C@@H](c2nc(-c3ccc4ccc(-c5ccccc5)nc4c3)c3c(N)nccn32)C1 [Linsitinib] |  |  |  |  |  |  |  |  |  |  |  | 1.04 ± 0.051 | 1.02 ± 0.073 | 0.996 ± 0.053 | 0.969 ± 0.026 | 0.921 ± 0.033 | 0.842 ± 0.012 | 0.757 ± 0.047 | 0.655 ± 0.07 | 0.588 ± 0.047 | 0.577 ± 0.055 | 0.465 ± 0.049
Cc1nc(NC(=O)N2CCC[C@H]2C(N)=O)sc1-c1ccnc(C(C)(C)C(F)(F)F)c1 [Alpelisib] |  |  |  |  |  |  |  |  |  |  |  | 1 ± 0.028 | 0.935 ± 0.034 | 0.922 ± 0.087 | 0.884 ± 0.042 | 0.838 ± 0.026 | 0.785 ± 0.067 | 0.745 ± 0.06 | 0.68 ± 0.041 | 0.577 ± 0.024 | 0.536 ± 0.039 | 0.445 ± 0.0061
COc1cccc2c1C(=O)c1c(O)c3c(c(O)c1C2=O)C[C@@](O)(C(=O)CO)C[C@@H]3O[C@H]1C[C@H](N)[C@H](O)[C@H](C)O1 [Doxorubicin Hydrochloride] |  |  |  |  |  |  |  |  |  |  |  | 0.93 ± 0.021 | 0.93 ± 0.047 | 0.949 ± 0.054 | 0.946 ± 0.055 | 0.81 ± 0.029 | 0.6943 ± 0.0048 | 0.525 ± 0.041 | 0.303 ± 0.017 | 0.258 ± 0.0095 | 0.136 ± 0.0072 | 0.118 ± 0.0061
CNC(=O)c1ccc(-c2cnc3ncc(Cc4ccc5ncccc5c4)n3n2)cc1F [Capmatinib] |  |  |  |  |  |  |  |  |  |  |  | 0.949 ± 0.061 | 0.94 ± 0.025 | 0.945 ± 0.027 | 0.956 ± 0.053 | 0.935 ± 0.021 | 0.956 ± 0.023 | 0.949 ± 0.029 | 0.921 ± 0.054 | 0.924 ± 0.043 | 0.953 ± 0.087 | 0.906 ± 0.066
Cc1ccc(NC(=O)c2ccc(CN3CCN(C)CC3)cc2)cc1Nc1nc(-c2cccnc2)cs1 [Masitinib] |  |  |  |  |  |  |  |  |  |  |  | 1.06 ± 0.064 | 1.06 ± 0.043 | 0.984 ± 0.066 | 1.03 ± 0.085 | 1.03 ± 0.037 | 1.04 ± 0.063 | 0.969 ± 0.038 | 0.913 ± 0.04 | 0.851 ± 0.054 | 0.576 ± 0.018 | 0.139 ± 0.022
